Measurements as given in ChEMBL document CHEMBL5046315, “CRCM5484: A BET-BDII Selective Compound with Differential Anti-leukemic Drug Modulation” (J Med Chem, 2022).
Calls of active or inactive are those of the source. No cut-off for these calls is given here.

Key:
[1] = test system: U-937; test: Potentiation of idasanutlin-induced antileukemic activity against human U-937 cells at 4.3 uM in presence of bone-marrow derived stromal cell-conditioned medium; format: functional, cell-based
[2] = test system: CCRF-CEM; test: Potentiation of BKM120-induced antileukemic activity against human CCRF-CEM cells at 4.3 uM in presence of bone-marrow derived stromal cell-conditioned medium; format: functional, cell-based
[3] = test system: CCRF-CEM; test: Potentiation of EPZ5676-induced antileukemic activity against human CCRF-CEM cells at 4.3 uM in presence of bone-marrow derived stromal cell-conditioned medium; format: functional, cell-based
[4] = test system: MOLM-14; test: Potentiation of arsenic-induced antileukemic activity against human MOLM-14 cells at 4.3 uM in presence of bone-marrow derived stromal cell-conditioned medium; format: functional, cell-based
[5] = test system: U-937; test: Potentiation of temsirolimus-induced antileukemic activity against human U-937 cells at 4.3 uM in presence of bone-marrow derived stromal cell-conditioned medium; format: functional, cell-based
[6] = test system: CCRF-CEM; test: Potentiation of cladribine-induced antileukemic activity against human CCRF-CEM cells at 4.3 uM in presence of bone-marrow derived stromal cell-conditioned medium; format: functional, cell-based
[7] = test system: MOLM-14; test: Potentiation of AG-221-induced antileukemic activity against human MOLM-14 cells at 4.3 uM in presence of bone-marrow derived stromal cell-conditioned medium; format: functional, cell-based
[8] = test system: U-937; test: Potentiation of sorafenib-induced antileukemic activity against human U-937 cells at 4.3 uM in presence of bone-marrow derived stromal cell-conditioned medium; format: functional, cell-based
[9] = test system: MOLM-14; test: Potentiation of GSK126-induced antileukemic activity against human MOLM-14 cells at 4.3 uM in presence of bone-marrow derived stromal cell-conditioned medium; format: functional, cell-based
[10] = test system: CCRF-CEM; test: Potentiation of -nutlin 3-induced antileukemic activity against human CCRF-CEM cells at 4.3 uM in presence of bone-marrow derived stromal cell-conditioned medium; format: functional, cell-based
[11] = test system: CCRF-CEM; test: Potentiation of -mastinib -induced antileukemic activity against human CCRF-CEM cells at 4.3 uM in presence of bone-marrow derived stromal cell-conditioned medium; format: functional, cell-based
[12] = test system: MOLM-14; test: Potentiation of clofarabine-induced antileukemic activity against human MOLM-14 cells at 4.3 uM in presence of bone-marrow derived stromal cell-conditioned medium; format: functional, cell-based
[13] = test system: MOLM-14; test: Potentiation of volasertib-induced antileukemic activity against human MOLM-14 cells at 4.3 uM in presence of bone-marrow derived stromal cell-conditioned medium; format: functional, cell-based
[14] = target: Bromodomain-containing protein 3 (Homo sapiens, UniProt Q15059); test: Inhibition of BRD3-BD2 (unknown origin) incubated for 6 hrs by HTRF method
Bromodomain-containing protein 3, sequence (Q15059 whole entry): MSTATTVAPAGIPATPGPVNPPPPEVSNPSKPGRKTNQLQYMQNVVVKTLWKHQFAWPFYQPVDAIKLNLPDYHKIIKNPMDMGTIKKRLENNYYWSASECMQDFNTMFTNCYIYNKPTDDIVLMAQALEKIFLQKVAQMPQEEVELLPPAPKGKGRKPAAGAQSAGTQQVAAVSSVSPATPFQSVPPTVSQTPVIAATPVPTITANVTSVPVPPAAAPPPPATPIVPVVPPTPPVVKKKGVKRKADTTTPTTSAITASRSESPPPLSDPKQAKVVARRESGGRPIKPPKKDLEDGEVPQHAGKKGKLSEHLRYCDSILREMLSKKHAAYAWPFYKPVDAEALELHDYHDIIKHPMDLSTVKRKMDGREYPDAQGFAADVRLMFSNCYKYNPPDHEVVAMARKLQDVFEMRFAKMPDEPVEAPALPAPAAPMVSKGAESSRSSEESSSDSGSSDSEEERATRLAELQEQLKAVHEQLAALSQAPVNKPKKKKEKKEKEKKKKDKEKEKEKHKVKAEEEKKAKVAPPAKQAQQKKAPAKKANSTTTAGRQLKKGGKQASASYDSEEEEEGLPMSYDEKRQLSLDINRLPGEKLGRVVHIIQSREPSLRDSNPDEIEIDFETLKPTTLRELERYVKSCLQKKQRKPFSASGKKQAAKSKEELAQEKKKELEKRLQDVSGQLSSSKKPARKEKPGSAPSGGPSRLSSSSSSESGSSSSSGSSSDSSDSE

[15] = test system: MOLM-14; test: Potentiation of idasanutlin-induced antileukemic activity against human MOLM-14 cells at 4.3 uM in presence of bone-marrow derived stromal cell-conditioned medium; format: functional, cell-based
[16] = target: Bromodomain-containing protein 2 (Homo sapiens, UniProt P25440); test: Inhibition of BRD2-BD1 (unknown origin) incubated for 6 hrs by HTRF method
Bromodomain-containing protein 2, sequence (P25440 whole entry): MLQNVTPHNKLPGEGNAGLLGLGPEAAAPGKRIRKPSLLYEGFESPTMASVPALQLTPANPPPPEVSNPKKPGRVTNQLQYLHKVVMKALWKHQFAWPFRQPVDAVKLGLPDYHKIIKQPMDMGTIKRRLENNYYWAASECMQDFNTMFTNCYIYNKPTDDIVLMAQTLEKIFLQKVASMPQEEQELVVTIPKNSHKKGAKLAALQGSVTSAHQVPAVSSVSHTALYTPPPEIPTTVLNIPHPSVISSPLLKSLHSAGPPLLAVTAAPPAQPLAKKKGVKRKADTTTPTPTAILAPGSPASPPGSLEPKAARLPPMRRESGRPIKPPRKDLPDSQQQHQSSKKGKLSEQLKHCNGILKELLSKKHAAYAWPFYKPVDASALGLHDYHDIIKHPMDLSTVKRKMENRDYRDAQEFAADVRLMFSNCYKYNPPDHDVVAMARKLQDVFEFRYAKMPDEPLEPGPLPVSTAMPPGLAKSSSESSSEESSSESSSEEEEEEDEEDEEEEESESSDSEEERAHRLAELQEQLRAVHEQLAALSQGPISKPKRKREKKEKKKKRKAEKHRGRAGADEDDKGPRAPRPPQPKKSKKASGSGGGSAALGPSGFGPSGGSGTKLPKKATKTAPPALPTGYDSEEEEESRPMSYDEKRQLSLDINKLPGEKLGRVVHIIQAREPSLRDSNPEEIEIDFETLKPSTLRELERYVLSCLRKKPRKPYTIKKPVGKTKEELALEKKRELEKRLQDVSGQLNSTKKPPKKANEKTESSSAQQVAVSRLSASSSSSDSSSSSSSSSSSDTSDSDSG

[17] = test system: U-937; test: Potentiation of volasertib-induced antileukemic activity against human U-937 cells at 4.3 uM in presence of bone-marrow derived stromal cell-conditioned medium; format: functional, cell-based
[18] = test system: MOLM-14; test: Potentiation of dasatinib-induced antileukemic activity against human MOLM-14 cells at 4.3 uM in presence of bone-marrow derived stromal cell-conditioned medium; format: functional, cell-based
[19] = test system: Acute myeloid leukemic cell; test: Potentiation of birinapant-induced antileukemic activity against patient derived mouse xenografted acute myeloid leukemic cells assessed as cell viability at 2 uM measured after 72 to 144 hrs by Cell-titre glo luminescent assay; format: functional, cell-based; conditions: Homo sapiens, time lower […], time upper 144.0 hrs
[20] = test system: MOLM-14; test: Potentiation of trametinib-induced antileukemic activity against human MOLM-14 cells at 4.3 uM in presence of bone-marrow derived stromal cell-conditioned medium; format: functional, cell-based
[21] = test system: CCRF-CEM; test: Potentiation of vincristine-induced antileukemic activity against human CCRF-CEM cells at 4.3 uM in presence of bone-marrow derived stromal cell-conditioned medium; format: functional, cell-based
[22] = test system: CCRF-CEM; test: Potentiation of azacitidine-induced antileukemic activity against human CCRF-CEM cells at 4.3 uM in presence of bone-marrow derived stromal cell-conditioned medium; format: functional, cell-based
[23] = test system: MOLM-14; test: Potentiation of tretinoin-induced antileukemic activity against human MOLM-14 cells at 4.3 uM in presence of bone-marrow derived stromal cell-conditioned medium; format: functional, cell-based
[24] = test system: CCRF-CEM; test: Potentiation of idarubicin-induced antileukemic activity against human CCRF-CEM cells at 4.3 uM in presence of bone-marrow derived stromal cell-conditioned medium; format: functional, cell-based
[25] = test system: U-937; test: Potentiation of gefitinib-induced antileukemic activity against human U-937 cells at 4.3 uM in presence of bone-marrow derived stromal cell-conditioned medium; format: functional, cell-based
[26] = test system: CCRF-CEM; test: Potentiation of sorafenib-induced antileukemic activity against human CCRF-CEM cells at 4.3 uM in presence of bone-marrow derived stromal cell-conditioned medium; format: functional, cell-based
[27] = test system: U-937; test: Potentiation of entinostat-induced antileukemic activity against human U-937 cells at 4.3 uM in presence of bone-marrow derived stromal cell-conditioned medium; format: functional, cell-based
[28] = test system: MOLM-14; test: Potentiation of vorinostat-induced antileukemic activity against human MOLM-14 cells at 4.3 uM in presence of bone-marrow derived stromal cell-conditioned medium; format: functional, cell-based
[29] = test system: CCRF-CEM; test: Potentiation of luminespid-induced antileukemic activity against human CCRF-CEM cells at 4.3 uM in presence of bone-marrow derived stromal cell-conditioned medium; format: functional, cell-based
[30] = test system: U-937; test: Potentiation of trametinib-induced antileukemic activity against human U-937 cells at 4.3 uM in presence of bone-marrow derived stromal cell-conditioned medium; format: functional, cell-based
[31] = test system: MOLM-14; test: Potentiation of SGI-110-induced antileukemic activity against human MOLM-14 cells at 4.3 uM in presence of bone-marrow derived stromal cell-conditioned medium; format: functional, cell-based
[32] = test system: MOLM-14; test: Potentiation of AraC-induced antileukemic activity against human MOLM-14 cells at 4.3 uM in presence of bone-marrow derived stromal cell-conditioned medium; format: functional, cell-based
[33] = test system: U-937; test: Potentiation of idarubicin-induced antileukemic activity against human U-937 cells at 4.3 uM in presence of bone-marrow derived stromal cell-conditioned medium; format: functional, cell-based
[34] = test system: CCRF-CEM; test: Potentiation of SGI-110-induced antileukemic activity against human CCRF-CEM cells at 4.3 uM in presence of bone-marrow derived stromal cell-conditioned medium; format: functional, cell-based
[35] = test system: MOLM-14; test: Potentiation of BKM120-induced antileukemic activity against human MOLM-14 cells at 4.3 uM in presence of bone-marrow derived stromal cell-conditioned medium; format: functional, cell-based
[36] = test system: MOLM-14; test: Potentiation of idelalisib-induced antileukemic activity against human MOLM-14 cells at 4.3 uM in presence of bone-marrow derived stromal cell-conditioned medium; format: functional, cell-based
[37] = test system: U-937; test: Potentiation of navitoclax-induced antileukemic activity against human U-937 cells at 4.3 uM in presence of bone-marrow derived stromal cell-conditioned medium; format: functional, cell-based
[38] = test system: MOLM-14; test: Potentiation of etoposide-induced antileukemic activity against human MOLM-14 cells at 4.3 uM in presence of bone-marrow derived stromal cell-conditioned medium; format: functional, cell-based
[39] = test system: MOLM-14; test: Potentiation of panobinostat-induced antileukemic activity against human MOLM-14 cells at 4.3 uM in presence of bone-marrow derived stromal cell-conditioned medium; format: functional, cell-based
[40] = test system: CCRF-CEM; test: Potentiation of SGI-1027-induced antileukemic activity against human CCRF-CEM cells at 4.3 uM in presence of bone-marrow derived stromal cell-conditioned medium; format: functional, cell-based
[41] = test system: U-937; test: Potentiation of -mastinib -induced antileukemic activity against human U-937 cells at 4.3 uM in presence of bone-marrow derived stromal cell-conditioned medium; format: functional, cell-based

CC(=O)N1CCc2c(sc3nc(SCC(=O)Nc4cccnc4C)n(Cc4ccco4)c(=O)c23)C1
Activity [1]: inactive | Activity [2]: inactive | Activity [3]: inactive | Activity [4]: inactive | Activity [5]: inactive | Activity [6]: inactive | Activity [7]: inactive | Activity [8]: inactive | Activity [9]: inactive | Activity [10]: inactive | Activity [11]: inactive | Activity [12]: inactive | Activity [13]: inactive | IC50 [14]: 20 nM | Activity [15]: inactive | IC50 [16]: 4700 nM | Activity [17]: inactive | Activity [18]: inactive | Activity [19]: Active | Activity [20]: inactive | Activity [21]: inactive | Activity [22]: inactive | Activity [23]: inactive | Activity [24]: inactive | Activity [25]: inactive | Activity [26]: inactive | Activity [27]: inactive | Activity [28]: inactive | Activity [29]: inactive | Activity [30]: inactive | Activity [31]: inactive | Activity [32]: inactive | Activity [33]: inactive | Activity [34]: inactive | Activity [35]: inactive | Activity [36]: inactive | Activity [37]: inactive | Activity [38]: inactive | Activity [39]: inactive | Activity [40]: inactive | Activity [41]: inactive
